Values quoted from earlier work in patent US20040198708A1, “Formulations of mometasone and a bronchodilator for pulmonary administration” (priority 2000, published 2004).

Columns and labels:
HPA axis [1] = details: mice, inhaled; Chapman et al. (1998)
[2] = test system: patients with mild to moderate persistent asthma; details: inhaled once daily, Nayak et al. (2000)
HPA axis [3] = details: humans, inhaled, dosages of up to 800 mcg daily; Bernstein et al. (1999)

## C[C@@H]1C[C@H]2[C@@H]3CCC4=CC(=O)C=C[C@]4(C)[C@@]3(Cl)[C@@H](O)C[C@]2(C)[C@@]1(OC(=O)c1ccco1)C(=O)CCl [mometasone furoate, (11β,16α)-9,21-dichloro-17-[(2-furanylcarbonyl)oxy]-11-hydroxy-16-methylpregna-1,4-diene-3,20-dione]
HPA axis [1]
  Suppression of the HPA axis: has not been reported
[2]
  Effectiveness in treating asthma: effective
HPA axis [3]
  HPA axis suppression: did not cause HPA axis suppression
